{"source": "patent US11396510B2", "about": "“GABAA receptor ligand” (Saniona A/S, priority 2018, dated 2022)", "key": {"[1]": {"test_system": "Compound 48/80 induced scratching in male CD-1 mice", "assay": "Compound 48/80 induced scratching in male CD-1 mice", "procedure": "Male CD-1 mice (22-30 g) (InterVivo Solutions, Canada)\nAll treatments were dosed at a dosing volume of 10 ml/kg.\nVisual observation of bouts of scratching over 30 minutes. Visual assessments were performed blinded to treatment."}, "[2]": {"target": "T1, α3β2γ2 GABAA receptors expressed in Xenopus laevis oocytes (Homo sapiens, UniProt P18507+P34903)", "T1 construct": "expressed in transfected cells; host or cells: Xenopus laevis oocytes injected with cRNA", "T1 sequence (P34903 29-492)": "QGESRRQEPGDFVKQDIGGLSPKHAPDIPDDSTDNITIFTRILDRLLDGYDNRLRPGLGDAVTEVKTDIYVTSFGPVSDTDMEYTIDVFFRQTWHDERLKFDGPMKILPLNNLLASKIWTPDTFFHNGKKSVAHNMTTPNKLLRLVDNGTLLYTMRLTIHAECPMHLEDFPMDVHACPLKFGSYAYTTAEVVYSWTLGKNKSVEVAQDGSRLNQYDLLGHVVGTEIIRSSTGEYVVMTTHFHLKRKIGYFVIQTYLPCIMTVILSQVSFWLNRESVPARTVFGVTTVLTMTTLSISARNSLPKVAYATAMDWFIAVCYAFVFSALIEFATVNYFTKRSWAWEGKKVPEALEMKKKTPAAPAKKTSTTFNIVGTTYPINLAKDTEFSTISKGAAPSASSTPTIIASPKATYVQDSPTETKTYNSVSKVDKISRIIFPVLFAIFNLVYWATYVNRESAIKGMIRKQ", "T1 sequence (P47870 25-512 partner limits assumed)": "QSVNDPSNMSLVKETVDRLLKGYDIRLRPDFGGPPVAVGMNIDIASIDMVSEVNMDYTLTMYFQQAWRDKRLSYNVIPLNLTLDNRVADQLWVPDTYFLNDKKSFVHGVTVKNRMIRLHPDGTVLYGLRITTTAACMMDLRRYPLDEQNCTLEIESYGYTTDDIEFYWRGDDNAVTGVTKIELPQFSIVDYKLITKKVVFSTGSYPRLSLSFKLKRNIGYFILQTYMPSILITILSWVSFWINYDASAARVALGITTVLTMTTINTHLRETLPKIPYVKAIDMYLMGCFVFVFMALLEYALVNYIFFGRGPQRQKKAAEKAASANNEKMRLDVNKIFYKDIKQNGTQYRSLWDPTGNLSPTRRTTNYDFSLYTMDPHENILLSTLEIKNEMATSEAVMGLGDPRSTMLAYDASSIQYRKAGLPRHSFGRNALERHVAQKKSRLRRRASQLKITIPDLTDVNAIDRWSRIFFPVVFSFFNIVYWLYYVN", "T1 sequence (P18507 40-467 isoform P18507-1 limits assumed)": "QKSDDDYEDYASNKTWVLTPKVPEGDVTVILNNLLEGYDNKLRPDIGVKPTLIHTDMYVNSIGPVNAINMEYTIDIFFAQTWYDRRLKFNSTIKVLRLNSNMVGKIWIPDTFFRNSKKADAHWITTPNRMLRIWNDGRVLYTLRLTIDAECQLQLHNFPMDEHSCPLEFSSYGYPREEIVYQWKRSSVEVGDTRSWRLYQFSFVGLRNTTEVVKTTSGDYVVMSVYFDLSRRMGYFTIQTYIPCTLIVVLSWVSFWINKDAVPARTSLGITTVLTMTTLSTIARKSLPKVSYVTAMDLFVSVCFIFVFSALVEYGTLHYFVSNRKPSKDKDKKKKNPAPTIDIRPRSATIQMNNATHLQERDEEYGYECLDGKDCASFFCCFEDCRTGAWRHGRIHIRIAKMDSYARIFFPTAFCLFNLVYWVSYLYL", "assay": "Oocyte two-electrode voltage clamp electrophysiology, α3β2γ2", "format": "cell-based", "conditions": "GABA at EC10-20; normalized to diazepam", "method": "(§1) FIG. 1. […] Efficacy profile on GABAA receptors in oocyte two-electrode voltage clamp recordings. […] Peak currents were read and normalized to a maximal effective concentration of diazepam, where after data points were fitted to the empirical Hill equation by non-linear regression, n=3−14.\n(§2) The assay reported here is performed to determine the in vitro functional potency as well as efficacy of PAMs at the major brain GABAA receptors subtypes. To establish this, a full concentration response profile was determined at a GABA concentration giving rise to 5-20% of the maximal GABA-evoked response from α1β2γ2, α2β2γ2, α3β2γ2 and α5β2γ2 receptors expressed in Xenopus laevis oocytes.\n(§3) Collagenase defolliculated X. laevis oocytes were obtained from Ecocyte Bioscience. For injection, the oocytes were placed in a custom designed chamber in Mod. […]\n(§4) Electrophysiological responses from X. laevis oocytes were measured using the two-electrode voltage clamp technique. […] Currents were amplified by a Geneclamp 500B amplifier (Axon), low-pass filtered at 20 Hz, digitized at 200 Hz by a Digidata 1322A (Axon) and then recorded as well as analyzed by a PC (Compaq Evo) using the pClamp9 suite (Axon). […]"}, "[3]": {"target": "T2, α5β2γ2 GABAA receptors expressed in Xenopus laevis oocytes (Homo sapiens, UniProt P18507+P31644)", "T2 construct": "expressed in transfected cells; host or cells: Xenopus laevis oocytes injected with cRNA", "T2 sequence (P31644 32-462)": "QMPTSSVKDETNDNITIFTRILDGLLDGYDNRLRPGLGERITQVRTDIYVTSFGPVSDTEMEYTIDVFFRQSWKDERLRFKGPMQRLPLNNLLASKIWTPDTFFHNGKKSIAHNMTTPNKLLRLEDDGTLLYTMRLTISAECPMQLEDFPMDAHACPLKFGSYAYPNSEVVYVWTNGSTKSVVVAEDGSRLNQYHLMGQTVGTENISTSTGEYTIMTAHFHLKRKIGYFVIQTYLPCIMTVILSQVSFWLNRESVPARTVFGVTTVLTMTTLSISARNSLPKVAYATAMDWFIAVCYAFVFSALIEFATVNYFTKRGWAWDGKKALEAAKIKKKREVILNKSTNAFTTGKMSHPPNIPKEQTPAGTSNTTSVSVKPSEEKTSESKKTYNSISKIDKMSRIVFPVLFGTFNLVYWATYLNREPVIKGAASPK", "T2 sequence (P47870 25-512 partner limits assumed)": "as the sequence (P47870 25-512 partner limits assumed) above", "T2 sequence (P18507 40-467 isoform P18507-1 limits assumed)": "as the sequence (P18507 40-467 isoform P18507-1 limits assumed) above", "assay": "Oocyte two-electrode voltage clamp electrophysiology, α5β2γ2", "format": "cell-based", "conditions": "GABA at EC10-20; normalized to maximal effective concentration of diazepam", "method": "as §1, §2, §3, §4"}, "[4]": {"target": "T3, recombinant GABA α3β2γ2 receptors (HEK-293 cell membranes) (Homo sapiens, UniProt P18507+P34903)", "T3 construct": "expressed in transfected cells; membranes", "T3 sequence (P34903 29-492)": "as the sequence (P34903 29-492) above", "T3 sequence (P47870 25-512 partner limits assumed)": "as the sequence (P47870 25-512 partner limits assumed) above", "T3 sequence (P18507 40-475)": "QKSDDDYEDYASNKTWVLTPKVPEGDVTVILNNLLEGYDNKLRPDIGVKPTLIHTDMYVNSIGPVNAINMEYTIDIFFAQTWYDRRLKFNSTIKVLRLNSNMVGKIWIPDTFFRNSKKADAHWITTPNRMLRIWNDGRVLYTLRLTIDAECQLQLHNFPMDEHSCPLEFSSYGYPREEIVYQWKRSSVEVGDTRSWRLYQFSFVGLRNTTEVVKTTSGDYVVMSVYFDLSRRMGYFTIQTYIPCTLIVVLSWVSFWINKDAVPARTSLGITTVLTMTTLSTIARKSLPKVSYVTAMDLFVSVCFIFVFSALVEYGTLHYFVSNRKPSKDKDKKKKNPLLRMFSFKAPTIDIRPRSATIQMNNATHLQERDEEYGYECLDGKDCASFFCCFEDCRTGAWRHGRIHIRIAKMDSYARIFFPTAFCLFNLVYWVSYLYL", "assay": "In vitro inhibition of 3H-flumazenil binding", "conditions": "3H-flumazenil 1 nM, 40 min at 2° C., HEK-293 α3β2γ2 membranes", "text": "Specific binding is total binding minus non-specific binding."}, "[5]": {"test_system": "Chronic Constriction Injury (CCI) in Rats", "assay": "Mechanical allodynia in chronic constriction injury (CCI) rats, acute and chronic dosing", "conditions": "for paw withdrawal threshold vs vehicle after chronic dosing: tested day 8", "procedure": "Morphine was administered subcutaneously. […] The animals were tested after 14 days of surgery. **p<0.01,****p<0.0001 vs vehicle, Two-way ANOVA Fisher's LSD posttest, n=7−9.\nMale SPRD rats (Taconic), 140-160 grams at surgery\nThe sciatic nerve was exposed at the mid-thigh level proximal to the sciatic trifurcation. Four chromic gut ligatures (4/0) (Ethicon, New Brunswick, N.J.) were tied loosely around the nerve, 1-2 mm apart, such that the vascular supply was not overtly compromised. The overlying muscle was closed in layers with 4/0 synthetic absorbable surgical suture.\nMorphine-hydrochloride: 6 mg/kg free base weight, 1 ml/kg, subcutaneous administration. Pretreatment: 30 minutes\nMorphine hydrochloride: 6 mg/kg free base weight, 1 ml/kg, subcutaneous administration once daily for 7 days."}, "[6]": {"target": "T4, α2β2γ2 GABAA receptors expressed in Xenopus laevis oocytes (Homo sapiens, UniProt P18507+P47869)", "T4 construct": "expressed in transfected cells; host or cells: Xenopus laevis oocytes injected with cRNA", "T4 sequence (P47869 29-451)": "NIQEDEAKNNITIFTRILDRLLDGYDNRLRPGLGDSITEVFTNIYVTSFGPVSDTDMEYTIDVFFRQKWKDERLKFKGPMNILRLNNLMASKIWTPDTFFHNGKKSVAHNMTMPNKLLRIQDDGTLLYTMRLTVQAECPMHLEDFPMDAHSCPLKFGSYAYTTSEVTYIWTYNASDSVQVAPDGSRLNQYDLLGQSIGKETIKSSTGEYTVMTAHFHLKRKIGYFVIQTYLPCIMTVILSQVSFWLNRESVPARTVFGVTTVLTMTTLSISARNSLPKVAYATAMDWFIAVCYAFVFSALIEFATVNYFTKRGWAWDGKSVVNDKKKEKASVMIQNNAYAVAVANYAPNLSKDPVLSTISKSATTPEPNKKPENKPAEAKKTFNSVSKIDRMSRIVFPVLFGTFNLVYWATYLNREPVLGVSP", "T4 sequence (P47870 25-512 partner limits assumed)": "as the sequence (P47870 25-512 partner limits assumed) above", "T4 sequence (P18507 40-467 isoform P18507-1 limits assumed)": "as the sequence (P18507 40-467 isoform P18507-1 limits assumed) above", "assay": "Oocyte two-electrode voltage clamp electrophysiology, α2β2γ2", "format": "cell-based", "conditions": "GABA at EC10-20; normalized to maximal effective concentration of diazepam", "method": "as §1, §2, §3, §4"}, "[7]": {"test_system": "male Sprague Dawley (SD) rats", "assay": "Exploratory locomotor activity in male SD rats", "format": "in vivo, rat", "conditions": "up to 30 mg/kg per oral, 120 minutes prior, recorded 30 minutes", "method": "FIG. 4. […] The activity of the rats was automatically registered for 30 minutes (TSE MoTil, Germany).\nMale SD rats (180-250 grams, NTac:SD, Taconic, Denmark)\n2 hrs post dosing, the rats were placed individually into novel standard home cages with reduced sawdust bedding. The cages were placed in frames equipped with photocells and beams allowing for automatic recording of locomotor behaviour (TSE MoTil, Germany). The exploratory locomotor activity was recorded for 30 minutes."}, "[8]": {"target": "T5, α1β2γ2 GABAA receptors expressed in Xenopus laevis oocytes (Homo sapiens, UniProt P14867+P18507)", "T5 construct": "expressed in transfected cells; host or cells: Xenopus laevis oocytes injected with cRNA", "T5 sequence (P14867 28-456)": "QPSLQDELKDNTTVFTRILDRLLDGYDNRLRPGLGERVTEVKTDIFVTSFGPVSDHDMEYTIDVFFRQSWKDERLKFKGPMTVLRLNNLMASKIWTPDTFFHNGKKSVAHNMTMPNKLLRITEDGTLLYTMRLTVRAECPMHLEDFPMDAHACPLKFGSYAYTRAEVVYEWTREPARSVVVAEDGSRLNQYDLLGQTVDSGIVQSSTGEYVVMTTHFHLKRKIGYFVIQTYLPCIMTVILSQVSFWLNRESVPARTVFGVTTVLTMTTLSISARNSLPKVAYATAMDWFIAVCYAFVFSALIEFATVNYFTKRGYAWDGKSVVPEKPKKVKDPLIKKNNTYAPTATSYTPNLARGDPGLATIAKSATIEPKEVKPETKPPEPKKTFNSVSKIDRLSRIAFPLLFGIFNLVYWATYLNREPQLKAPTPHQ", "T5 sequence (P47870 25-512 partner limits assumed)": "as the sequence (P47870 25-512 partner limits assumed) above", "T5 sequence (P18507 40-467 isoform P18507-1 limits assumed)": "as the sequence (P18507 40-467 isoform P18507-1 limits assumed) above", "assay": "Oocyte two-electrode voltage clamp electrophysiology, α1β2γ2", "format": "cell-based", "conditions": "GABA at EC10-20, normalized to diazepam", "method": "as §1, §2\nCollagenase defolliculated X. laevis oocytes were obtained from Ecocyte Bioscience. For injection, the oocytes were placed in a custom designed chamber in Mod. Barth's solution (90 mM NaCl, 1 mM KCl, 0.66 mM NaNO3, 2.4 mM NaHCO3, 0.74 mM CaCl2, 0.82 mM MgCl2, 100 μg/ml Gentamicin and 10 mM HEPES adjusted to pH 7.55) and injected with 25-50 nl of cRNA mixture using a Pico Pump (WPI). The cRNA mixture contain GABAAR subunits αx, β2, and γ2s in the ratio of 3:1:3 and in a total concentration of 0.5 μg/μl. Following injection, oocytes were maintained at 18° C. in Mod.\nElectrophysiological responses from X. laevis oocytes were measured using the two-electrode voltage clamp technique. Single oocytes were placed in custom designed recording chambers that were continuously perfused with ≥2 ml/min OR2 (90 mM NaCl, 2.5 mM KCl, 2.5 mM CaCl2, 1 mM MgCl2 and 5 mM HEPES pH 7.4). […] The oocyte was impaled using manual micro manipulators and allowed to equilibrate at a holding potential of −50 mV to −80 mV for at least 1 min to ensure a maximal leak current of 100 nA before the experiment was initiated. […] Currents were amplified by a Geneclamp 500B amplifier (Axon), low-pass filtered at 20 Hz, digitized at 200 Hz by a Digidata 1322A (Axon) and then recorded as well as analyzed by a PC (Compaq Evo) using the pClamp9 suite (Axon). […]"}, "[9]": {"test_system": "male Sprague Dawley (SD) rats", "assay": "Rotarod performance in male SD rats", "conditions": "10 mg/kg per oral, 60 minutes before test", "procedure": "Rats were trained on the rota rod for two days at 4-40 rpm for 5 min before evaluating the drug effects on the 3rd day.\nMale SD rats (150-180 grams, NTac:SD, Taconic, Denmark)\nThe rats were trained on an accelerating rotarod (4-40 rpm, PanLab), one trial of 5 minutes per day, for two days prior to drug testing. Only rats that were able to stay on the rotating rod for more than 90 seconds after two days of training were included in the study. At the day of testing, the rats were placed on the rotating rod, accelerating with a speed of 4-40 rpm/5 minutes with the minimum time possible to spend on the rod designated as 0 s, and the maximum time spent on the rod set at 300 s."}}, "note": "pIC50, pKi: −log10 of the molar value. Entries after “also recorded” stand apart in the source; their conditions may differ.", "data": [{"compound": "COc1ncc(-c2cccc(-n3cnc4cc(C(C)(C)O)cnc43)c2)c(OC)n1", "note": "[Compound 1, 2-(3-(3-(2,4-dimethoxypyrimidin-5-yl)phenyl)-3H-imidazo[4,5-b]pyridin-6-yl)propan-2-ol]", "values": [{"measurement": "bouts of scratching over 30 minutes vs vehicle", "setting": "[1]; 3, 10, 30 mg/kg oral gavage, 30 min prior, significant at 10 and 30 mg/kg", "result": "significantly relieved itching; also recorded: dose dependently reduced"}, {"measurement": "minimal effective dose, bouts of scratching", "setting": "[1]; oral gavage 30 min before compound 48/80", "result": 10, "unit": "mg/kg"}, {"measurement": "potentiation of GABA-mediated currents in GABAA-α3 containing receptors", "setting": "[2]", "result": "preferential potentiation"}, {"measurement": "activation of GABAA-α5 containing receptors", "setting": "[3]", "result": "less than 10%"}, {"measurement": "pIC50", "setting": "[4]", "result": 7.42}, {"measurement": "pKi", "setting": "[4]", "result": 7.82}, {"measurement": "paw withdrawal threshold vs vehicle after chronic dosing", "setting": "[5]; 1, 3, 10 mg/kg per oral once daily for 7 days", "result": "significant enhancement of the paw withdrawal threshold was maintained"}, {"measurement": "paw withdrawal threshold vs vehicle after chronic dosing", "setting": "[5]; 1, 3, 10 mg/kg per oral once daily for 7 days, listed as compound 1", "result": "significant analgesic effect of all 3 doses were maintained"}, {"measurement": "paw withdrawal threshold vs vehicle", "setting": "[5]; acute, 1 mg/kg per oral, 2 hrs and 3 hrs post treatment", "result": "significantly enhanced paw withdrawal threshold"}, {"measurement": "paw withdrawal threshold vs vehicle", "setting": "[5]; acute, 3 mg/kg per oral, 2 hrs and 3 hrs post treatment", "result": "significantly enhanced paw withdrawal threshold"}, {"measurement": "paw withdrawal threshold vs vehicle", "setting": "[5]; acute, 10 mg/kg per oral", "result": "just failed to reach statistical significance"}, {"measurement": "minimal effective dose, reversal of mechanical allodynia", "setting": "[5]; acute, oral administration, CCI rats", "result": "less than or equal to 1 mg/kg"}, {"measurement": "CI", "setting": "IV 0.5 mg/kg, rat", "result": 6.33, "unit": "mL/min/kg"}, {"measurement": "concentration after 8 h", "setting": "dose 1 mg/kg (Table 3)", "result": "*AUC calculated 0-8 h, concentration after 8 h was 149 ng/ml."}, {"measurement": "activation of GABAA-α2 containing receptors", "setting": "[6]", "result": "less than 10%"}, {"measurement": "exploratory locomotor activity", "setting": "[7]", "result": "did not exert any effect; also recorded: did not affect exploratory locomotor activity"}, {"measurement": "modulation of GABA-mediated currents, α1β2γ2 receptor", "setting": "[8]", "result": "no activation"}, {"measurement": "modulation of GABA-mediated currents, α1β2γ2 receptor", "setting": "[8]; listed as compound 1", "result": "close to zero"}]}, {"compound": "COc1ncc(-c2cccc(-n3cnc4cc(C(C)(C)O)ccc43)c2)c(OC)n1", "note": "[Compound 9, reference compound]", "values": [{"measurement": "modulation of GABA-mediated currents, α1β2γ2 receptor", "setting": "[8]", "result": "clearly negative"}]}, {"compound": "CN1C(=O)CN=C(c2ccccc2)c2cc(Cl)ccc21", "note": "[Diazepam]", "values": [{"measurement": "latency to fall off accelerating rotarod", "setting": "[9]", "result": "significantly shortened the time to fall off the rod; also recorded: significantly shortened the latency to fall off"}]}, {"compound": "CN1CC[C@]23c4c5ccc(O)c4O[C@H]2[C@@H](O)C=C[C@H]3[C@H]1C5.Cl", "note": "[Morphine hydrochloride, reference compound]", "values": [{"measurement": "paw withdrawal threshold vs vehicle after chronic dosing", "setting": "[5]; 6 mg/kg subcutaneous once daily for 7 days, hydrochloride", "result": "completely abolished the allodynic effect; also recorded: completely lost"}, {"measurement": "paw withdrawal threshold vs vehicle", "setting": "[5]; acute, 6 mg/kg subcutaneous", "result": "significantly enhanced paw withdrawal threshold"}]}]}
